Results: patent US20130059879A1, “Small Molecule Inhibitors of PFKFB3 and Glycolytic Flux and Their Methods of Use as Anti-Cancer Therapeutics” (UNIVERSITY OF LOUISVILLE RESEARCH FOUNDATION, INC., priority 2010, published 2013)
pIC50: −log10 of the molar value. Values after ≈ are worked out from the molar mass of the structure shown. Where a name gives a salt, the structure may show the parent alone. Read-outs that look alike come from different tables or passages of the source.

Legend:
HCT-116 = experiment: Cancer cell proliferation, Alamar Blue assay, 72 hours; format: cell-based
Experimental: (§1) The ability of the compounds described herein to kill or inhibit the proliferation of cancer cells was measured using either the MTT assay, or the Alamar Blue assay, or the Cell Titer Glow® assay using 48 or 72 hours exposure. […] The procedures are briefly described below. Cells of the desired tumor cell line were plated at 2×10^5 cells/ml in 96 well plates. Twice the indicated concentrations of the compounds of the invention were added to cells the following day in an equal volume of media. 72 hours later, cells were lysed and subjected to ATP determination using the CellTiter Glo-Luminescent Cell Viability Assay kit (Promega, Madison, Wis.). Experiments were done in triplicate. When using the MTT assay or the Alamar blue assay, the experimental conditions are essentially similar; at the end of the incubation period, 20 microliters of the MTT solution is added per well and the samples are incubated for an additional four hours, rinsed, and the absorbance at 570 nm measured. […] Table 2 lists the IC50 values for the compounds of the invention in several cell lines including Jurkat, Calu-6, NCI-H82, U937, HCT-116, and MDA-MB-231 cancer cell lines.

NCI-H82 = experiment: as above; format: cell-based
Experimental: as §1

MDA-MB-231 = experiment: as above; format: cell-based; details: Homo sapiens
Experimental: as §1

U937 = experiment: as above; format: cell-based
Experimental: as §1

Jurkat = experiment: as above; format: cell-based
Experimental: as §1

Calu-6 = experiment: as above; format: cell-based
Experimental: as §1

[1] = Microsomal stability in human liver microsomes; format: in vitro ADME
Experimental: Microsomal stability in vitro in different biologic media (liver microsomes, S9 fraction, hepatocytes) and species is ascertained to evaluate the rate at which a compound undergoes metabolism in the experimental in vitro conditions. Results for some compounds of the invention after a 60 minutes incubation period in human liver microsomes are shown in the Table 6 below. […] Experimental conditions are briefly described here: the stability in human liver microsomes of several compounds was done over […] at 37° C. using pooled mixed gender human liver microsomes. These liver microsomes were prepared at 1.0 mg/ml of microsomal protein in a 100 mM potassium phosphate pH 7.4 buffer with 1 mM NADPH. The media was incubated at 37° C. with the compound in solution in DMSO. The concentration of the compound was followed by LC/MS-MS as a function of time. Samples were assayed at t=0, 15, 30, and 60 minutes. Testosterone was used as a positive control. The same experiment was performed with mouse, rat or dog liver microsomes instead of human liver microsomes.

[2] = Solubility in solvents and excipients, 1 hour at room temperature, HPLC; format: physicochemical; details: thermodynamic from solid
Experimental: Chemical properties of the compounds of the invention were investigated, including the solubility in several solvents and pharmaceutically accepted excipients. […] Briefly, selected compounds of the invention are dissolved in a small volume of the solvents/excipients of interest at room temperature over 1 hour in typically 1 ml and the concentration is measured by HPLC after filtration.

PFKFB3 = biological target: T1, PFKFB3 (Homo sapiens, UniProt Q16875); experiment: Inhibition of recombinant PFKFB3 kinase activity (ADP Glow assay); format: biochemical; details: 250 nM analog concentration; read-out: % Inhibition of PFKFB3 Enzymatic Activity
T1 construct: GST
T1 sequence (Q16875 whole entry, species assumed): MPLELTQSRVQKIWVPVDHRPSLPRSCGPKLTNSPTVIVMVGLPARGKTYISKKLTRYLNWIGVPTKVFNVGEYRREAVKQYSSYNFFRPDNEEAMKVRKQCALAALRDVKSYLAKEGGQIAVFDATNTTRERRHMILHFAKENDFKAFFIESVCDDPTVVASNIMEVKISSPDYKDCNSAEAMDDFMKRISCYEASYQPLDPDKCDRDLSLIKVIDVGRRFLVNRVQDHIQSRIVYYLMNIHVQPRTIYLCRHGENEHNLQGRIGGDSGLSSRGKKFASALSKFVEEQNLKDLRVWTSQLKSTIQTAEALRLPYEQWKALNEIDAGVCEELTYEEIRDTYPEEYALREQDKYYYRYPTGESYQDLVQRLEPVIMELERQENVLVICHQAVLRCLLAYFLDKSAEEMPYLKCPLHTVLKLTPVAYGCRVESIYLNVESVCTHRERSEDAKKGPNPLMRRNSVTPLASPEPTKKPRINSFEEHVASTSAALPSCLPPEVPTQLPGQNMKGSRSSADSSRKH
Experimental: PFKFB3 was prepared by expression in E. coli and purified by GST column and column chromatography. […] The recombinant protein was pure and active as determined by the results of a kinase activity assay commercially available (such as ADP Glow® assay, […]). The same assay was used to determine the inhibition of the protein and the results are shown in Table 5 below (IC50 values or percent inhibition at a fixed concentration). Results confirmed that the compounds of the invention have low nanomolar IC50 values, interacting with PFKFB3 and inhibiting its enzymatic activity.

[3] = Homo sapiens, NCI-H82, read-out: IC50 NCl-H82
[4] = 60 min incubation, 1.0 mg/ml microsomal protein, 1 mM NADPH, 37° C.
[5] = aqueous with cosolvent or surfactant or cyclodextrin, Cre:EtOH:Saline 5:5:90 mixture, 1 hour at room temperature, read-out: Solubility Cre:EtOH:Saline
[6] = ethanol, organic solvent or mixture, EtOH, 1 hour at room temperature, read-out: Solubility EtOH
[7] = organic solvent or mixture, 1:1 cremophor EL-P:ethanol mixture, 1 hour at room temperature, read-out: Solubility Cre:EtOH
[8] = organic solvent or mixture, Acetone, 1 hour at room temperature, read-out: Solubility Acetone
[9] = organic solvent or mixture, Cremophor, 1 hour at room temperature, read-out: Solubility Cremophor
[10] = organic solvent or mixture, DCM, 1 hour at room temperature, read-out: Solubility DCM
[11] = organic solvent or mixture, Tween 80, 1 hour at room temperature, read-out: Solubility Tween 80
[12] = organic solvent or mixture, Tween80:EtOH 6:4 mixture, 1 hour at room temperature, read-out: Solubility Twee80:EtOH

| SMILES | pIC50 (HCT-116; Homo sapiens, HCT-116) | pIC50 (NCI-H82; [3]) | pIC50 (MDA-MB-231) | pIC50 (U937; Homo sapiens, U-937) | pIC50 (Jurkat; Homo sapiens, Jurkat) | pIC50 (Calu-6; Homo sapiens, Calu-6) | HLM, Mean metabolized (%) ([1]; 0 min) | HLM, Mean metabolized (%) [1, 4] [%] | further results |
| --- | --- | --- | --- | --- | --- | --- | --- | --- | --- |
| COC(=O)c1cc(C(=O)c2cc3c(ccc4ccccc43)[nH]2)ccc1OCc1ccccc1 [ACT-PFK-113, 5-(3H-Benzo[e]indole-2-carbonyl)-2-benzyloxy-benzoic acid methyl ester] | < 4.00 | < 4.00 | < 4.00 | 4.57 | 4.55 | 4.55 | – | – | – |
| COc1cc(C(=O)c2cc3c(cc(F)c4ccccc43)[nH]2)ccc1O [ACT-PFK-119, (5-Fluoro-3H-benzo[e]indol-2-yl)-(4-hydroxy-3-methoxy-phenyl)-methanone] | 6.44 | 6.50 | 6.21 | 7.15 | 6.96 | 7.15 | 0.0 | 79.2 | solubility at 1 h [2, 5]: 300 µg/mL (≈ 0.895 mM); solubility at 1 h [2, 6]: 1000 µg/mL (≈ 2.98 mM); solubility at 1 h [2, 7]: 6100 µg/mL (≈ 18.2 mM); solubility at 1 h [2, 8]: 5500 µg/mL (≈ 16.4 mM); solubility at 1 h [2, 9]: 14400 µg/mL (≈ 42.9 mM); solubility at 1 h [2, 10]: 700 µg/mL (≈ 2.09 mM); solubility at 1 h [2, 11]: 11400 µg/mL (≈ 34 mM); solubility at 1 h [2, 12]: 8600 µg/mL (≈ 25.6 mM); inhibition at 0.25 µM (PFKFB3): 3.7% |
| O=C(c1ccc(OCc2ccccc2)c(C(=O)O)c1)c1cc2c(ccc3ccccc32)[nH]1 [ACT-PFK-114, 5-(3H-Benzo[e]indole-2-carbonyl)-2-benzyloxy-benzoic acidmethanone] | < 4.00 | < 4.00 | < 4.00 | < 4.00 | < 4.00 | < 4.00 | – | – | – |
| O=C(c1cc2c(ccc3ccccc32)[nH]1)c1ccccc1O [ACT-PFK-099, (3H-Benzo[e]indol-2-yl)-(2-hydroxy-phenyl)-methanone] | 6.31 | 6.17 | – | 7.12 | 6.39 | 6.64 | – | – | – |
| COc1ccc(C(=O)c2cc3c(ccc4ccccc43)[nH]2)cc1 [ACT-PFK-093, (3H-Benzo[e]indol-2-yl)-(4-methoxy-phenyl)-methanone] | – | – | – | – | – | – | 0.0 | 95 | – |
| Cc1ccc(C(=O)c2cc3c(ccc4ccccc43)[nH]2)cc1 [ACT-PFK-123, (3H-Benzo[e]indol-2-yl)-p-tolyl-methanone] | – | 6.50 | – | – | 7.00 | 7.10 | – | – | inhibition at 0.25 µM (PFKFB3): 19.4% |
| O=C(c1ccccc1)c1cc2c(ccc3cccnc32)[nH]1 [ACT-PFK-102, Phenyl-(7H-pyrrolo[2,3-h]quinolin-8-yl)-methanone] | – | < 4.00 | – | < 4.00 | < 4.00 | < 4.00 | – | – | – |
| O=C(O)c1ccc(C(=O)c2cc3c(ccc4ccccc43)[nH]2)cc1 [ACT-PFK-111, 4-(3H-Benzo[e]indole-2-carbonyl)-benzoic acid] | 4.20 | 4.40 | < 4.00 | 4.24 | < 4.00 | 4.24 | – | – | inhibition at 0.25 µM (PFKFB3): 54.3% |
| O=C(c1cccc(O)c1)c1cc2c(ccc3ccccc32)[nH]1 [ACT-PFK-103, (3H-Benzo[e]indol-2-yl)-(3-hydroxy-phenyl)-methanone] | 6.44 | 6.39 | 5.19 | – | 6.96 | 6.89 | – | – | – |
| Cc1cc2[nH]c(C(=O)c3ccccc3)cc2c2ccccc12 [ACT-PFK-101, (5-Methyl-3H-benzo[e]indol-2-yl)-phenyl-methanone] | – | < 4.00 | – | < 4.00 | < 4.00 | < 4.00 | – | – | – |
| COc1cc(C(=O)c2cc3c(ccc4ccccc43)[nH]2)ccn1 [ACT-PFK-115, (3H-Benzo[e]indol-2-yl)-(2-methoxy-pyridin-4-yl)-methanone] | 5.09 | 5.22 | 6.21 | 5.97 | 5.34 | 5.66 | 0.0 | 99.6 | – |
| O=C(c1ccncc1)c1cc2c(cc(F)c3ccccc32)[nH]1 [ACT-PFK-118, (5-Fluoro-3H-benzo[e]indol-2-yl)-pyridin-4-yl-methanone] | 5.77 | 6.41 | 6.17 | 7.02 | 6.62 | 6.38 | 0.0 | 22.2 | solubility at 1 h [2, 5]: 100 µg/mL (≈ 0.344 mM); solubility at 1 h [2, 6]: 200 µg/mL (≈ 0.689 mM); solubility at 1 h [2, 7]: 1000 µg/mL (≈ 3.44 mM); solubility at 1 h [2, 8]: 600 µg/mL (≈ 2.07 mM); solubility at 1 h [2, 9]: 2200 µg/mL (≈ 7.58 mM); solubility at 1 h [2, 10]: 300 µg/mL (≈ 1.03 mM); solubility at 1 h [2, 11]: 1600 µg/mL (≈ 5.51 mM); solubility at 1 h [2, 12]: 1300 µg/mL (≈ 4.48 mM); inhibition at 0.25 µM (PFKFB3): 0% |
| O=C(c1ccnc(Cl)c1)c1cc2c(ccc3ccccc32)[nH]1 [ACT-PFK-105, (3H-benzo[e]indol-2-yl)-(2-chloro-pyridin-4-yl)-methanone] | 6.45 | 6.40 | 5.13 | 7.15 | 6.94 | 6.85 | 0.0 | 51.4 | – |
| O=C(c1ccccc1)c1cc2c3c(ccc2[nH]1)CCCC3 [ACT-PFK-107, Phenyl-(6,7,8,9-tetrahydro-3H-benzo[e]indol-2-yl)-methanone] | < 4.00 | 5.00 | 4.93 | 5.55 | 5.16 | 5.14 | 0.0 | 100.0 | – |
| O=C(c1cc[n+]([O-])cc1)c1cc2c(ccc3ccccc32)[nH]1 [ACT-PFK-106, (3H-benzo[e]indol-2-yl)-(1-oxy-pyridin-4-yl)-methanone] | 4.41 | 4.82 | 4.55 | 5.50 | 4.68 | 5.05 | – | – | – |
| O=C(c1ccccc1)c1cc2c(cc(F)c3ccccc32)[nH]1 [ACT-PFK-104, (5-Fluoro-3H-benzo[e]indol-2-yl)-phenyl-methanone] | 6.49 | 6.51 | 5.23 | – | 6.93 | 6.70 | 0.0 | 80 | – |
| O=C(c1ccncc1)c1cc2c(ccc3ccccc32)[nH]1 [ACT-PFK-095HCl, HCl salt of (3H-Benzo[e]indol-2-yl)-pyridin-4-yl-methanone] | – | – | – | – | – | – | – | – | pIC50 (HCT-116): 6.07; pIC50 (NCI-H82; read-out: IC50 NCl-H82): 6.52; pIC50 (U937): 7.70; pIC50 (Jurkat): 6.36; pIC50 (Calu-6): 6.41 |
| COC(=O)c1ccc(C(=O)c2cc3c(ccc4ccccc43)[nH]2)cc1 [ACT-PFK-110, 4-(3H-Benzo[e]indole-2-carbonyl)-benzoic acid methyl ester] | < 4.00 | < 4.00 | < 4.00 | < 4.00 | < 4.00 | 4.23 | – | – | – |
| O=C(c1ccc(O)cc1)c1cc2c(ccc3ccccc32)[nH]1 [ACT-PFK-100, (3H-Benzo[e]indol-2-yl)-(4-hydroxy-phenyl)-methanone] | – | – | – | – | – | – | – | – | inhibition at 0.25 µM (PFKFB3): 0% |
